Values of other authors in paper PMC11133798, “Vosoritide treatment for children with hypochondroplasia: a phase 2 trial” (eClinicalMedicine, 2024).
No end group written: not given here.

Legend:
[1] = tested on: L613V/+ mice; conditions: by 2 weeks of treatment; catch up began after 1 week; ref 26 (protocol list); cited from earlier work
Description: They then proceeded to give these mice a MEK inhibitor.

[2] = tested on: rat chondrosarcoma cells; conditions: CNP treatment; ref 36 (protocol list); cited from earlier work
Description: Individuals with heterozygous defects in Aggrecan present with dominantly inherited short stature often with advanced bone ages and premature growth cessation 32,33.

[3] = tested on: mouse model with Braf mutation (p.Q241R); conditions: CNP administration; ref 28 (protocol list); cited from earlier work
[4] = tested on: mice deficient in Nf1 in type II collagen producing cells; conditions: daily injections of CNP; ref 27 (protocol list); cited from earlier work
[5] = tested on: rat chondrosarcoma cell lines, NPR2 heterozygous knock out; conditions: ref 23 (protocol list); cited from earlier work
Description: (§1) Our group identified pathogenic mutations in NPR2 in ~2% of ~400 patients presenting with short stature 22. The degree of short stature ...

[6] = tested on: rat chondrosarcoma cell lines, NPR2 homozygous knock out; conditions: ref 23 (protocol list); cited from earlier work
Description: as §1

[7] = tested on: children with hypochondroplasia; conditions: cited from earlier work
Description: As there are no currently approved medications for hypochondroplasia, recombinant human growth hormone (rhGH) has been used off-label in patients with hypochondroplasia with variable efficacy. To date, there are no controlled trials of rhGH in children with hypochondroplasia. […] However, growth velocity slowed substantially after the first year resulting in a total increase in height ...

[8] = meta-analysis of 7 studies, 113 children with hypochondroplasia

O=C(NOC[C@H](O)CO)c1ccc(F)c(F)c1Nc1ccc(I)cc1F [PD0325901]
Body length [1]: the same length as untreated WT mice

CNP: endogenous C-type natriuretic peptide, ligand of NPR-B (GLSKGCFGLKLDRIGSMSGLGC; ends and bridges not checked; cysteine pairing not given here; UniProt P23582 105-126, looked up)
Extracellular matrix after FGF2 administration [2]: rescue the loss of extracellular matrix | Body length [3]: increases in body length | ERK phosphorylation and stature [4]: decreased ERK phosphorylation and corrected the short stature | CNP concentration generating cGMP sufficient to activate downstream protein kinase G signaling [5]: > 0.163 nM | cGMP response to CNP [6]: absolutely no

rhGH: recombinant human growth hormone used off-label in hypochondroplasia
Body disproportion ([7]; higher dose of rhGH, after three years of treatment): significant worsening of body disproportion | Mean first year increase in height SDS [7, 8]: 0.41 SD | Total increase in height after 3 years [7, 8]: 0.61 SD
